Results from patent US11413278B2, “Compounds and methods for promoting stress resistance” (priority 2015, dated 2022).
Where two headings read alike, the source gives them in different places.

Assays:
WI-38 cells [1] = conditions: for No H2O2 stress treatment, at 10 uM (fold change): normalized ATP measurement
human PARP1 = molecular target: T1, human PARP1 (Homo sapiens, UniProt P09874); test: PARP inhibitor assay (HT Fluorescent Homogeneous PARP Inhibition Assay Kit); format: biochemical; conditions: for L = PARP inhibition: score
T1 construct: purchased Trevigen
Summary of the method: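 Compounds (10 μM final) incubated 30 min, room temperature, dark, with human PARP1, nicotinamide adenine dinucleotide and activated DNA. Fluorescent signal generated by 1 hr cycling with diaphorase and resazurin, then reaction stopped.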

C. elegans = C. elegans lifespan assays (liquid and plate); format: in vivo, Caenorhabditis elegans; conditions: for ILS at 60 µM / ILS at 66 µM: Caenorhabditis elegans; for O = Life span- extending scores in worms: score scale 0 to 2, 4 to 6 independent trials; for M = Lifespan-extending scores in worms: summary score; for Extension of C. elegans' lifespan (qualitative): in at least 3 to 4 trials, group range ~10% to ~50%
[2] = system: PC12 cells expressing poly(Q)103-Htt-EGFP; test: Poly(Q) toxicity & viability analysis (cellular model of Huntington's disease); format: cell-based, rat; conditions: for M = Huntington's poly-Q toxicity attenuation: score; for K = Huntington's poly-Q toxicity attenuation: summary score
Summary of the method: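 Readout is CellTiter-Glo ATP content measured after 48 hrs. Cells are a PC12 line stably expressing inducible poly(Q)103-Htt-EGFP, where induction produces toxic aggregates.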

WI-38 cells [3] = test: MMS resistance assay; format: cell-based, human; conditions: for fold induction at 10 µM: Homo sapiens, 12 h, normalized ATP measurement
Summary of the method: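 Resistance to CdCl2 or MMS stress (12 h exposure) was scored in WI-38 fibroblasts pretreated with compound at 0.25–20 μM final, five doses, technical triplicates. MMS plates had compound added 24 h before MMS, after a shift to serum-free DMEM+2% BSA. Significance came from a global variance t-test over two independent runs.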

[4] = system: phosphorylated γH2A.X and TP53BP1; test: DNA damage marker analysis (immuno-staining); conditions: for activity at 10 µM: Homo sapiens, WI-38, 24 h; for P = Potential DNA-damaging / R = Potential DNA damaging: human, 24 h
Summary of the method: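 Immunofluorescence read-out for phospho-γH2A.X (Ser-139) and phospho-TP53BP1 (Ser-1778), with DAPI nuclear stain and automated imaging at 10×. WI-38 cells (~8,000 per well) were exposed to small molecules for 24 h after 24 h of culture, with doxorubicin (300 nM, 24 h) or H2O2 (700 μM, 3 h) as positive damage controls.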

[5] = WI-38 cells, 10 μM, (*) = compromised ability to protect cells from H2O2, could be due to stability issue
[6] = asterisks indicate the loss of the ability to protect cells from H2O2 over time
[7] = derived from dose response curves, 0.6-20 uM, H2O2-resistance of WI-38 cells
[8] = read-out: Est. ED50, dose response 0.6-20 μM, H2O2-resistance
[9] = 60 μM, in liquid, wild type, with FuDR, 1.0 × 10^9 bacteria/ml, read-out: relative change of mean lifespan vs control, Trial 1
[10] = 60 μM, in liquid, wild type, with FuDR, 2.5 × 10^9 bacteria/ml, read-out: relative change of mean lifespan vs control, Trial 2
[11] = 60 μM, on plate, CF512 temperature-sensitive sterile animals, without FuDR, 2.0 × 10^10 bacteria/ml, read-out: relative change of mean lifespan vs control, Trial 3
[12] = Assay 2(z), 1.0 × 10^9 bacteria/ml, wild type + FuDR (2012 July), read-out: Lifespan assay in liquid
[13] = Assay 3(aa), 2.5 × 10^9 bacteria/ml, wild type + FuDR, read-out: Lifespan assay in liquid
[14] = Assay 4(ab), 2.0 × 10^10 bacteria/ml, CF512 worms, no FuDR, read-out: Lifespan assay on plates
[15] = Exp. 1, WI-38 cells, read-out: Exp. 1, under MMS stress treatment, at 10 uM (fold change)
[16] = Exp. 2, WI-38 cells, read-out: Exp. 2, under MMS stress treatment, at 10 uM (fold change)
[17] = score in summary of 38 core set hits
[18] = read-out: Experiment 1, H2A.X-P DNA damage foci staining (no H2O2 stress treatment), at 10 uM
[19] = read-out: Experiment 2, H2A.X-P DNA damage foci staining (no H2O2 stress treatment), at 10 uM
[20] = read-out: Experiment 2, H2A.X-P DNA damage foci staining (under H2O2 stress treatment), at 10 uM
[21] = read-out: Experiment 2, TP53BP1-P DNA damage foci staining (no H2O2 stress treatment), at 10 uM
[22] = read-out: Experiment 2, TP53BP1-P DNA damage foci staining (under H2O2 stress treatment), at 10 uM

T1 sequence (P09874 whole entry): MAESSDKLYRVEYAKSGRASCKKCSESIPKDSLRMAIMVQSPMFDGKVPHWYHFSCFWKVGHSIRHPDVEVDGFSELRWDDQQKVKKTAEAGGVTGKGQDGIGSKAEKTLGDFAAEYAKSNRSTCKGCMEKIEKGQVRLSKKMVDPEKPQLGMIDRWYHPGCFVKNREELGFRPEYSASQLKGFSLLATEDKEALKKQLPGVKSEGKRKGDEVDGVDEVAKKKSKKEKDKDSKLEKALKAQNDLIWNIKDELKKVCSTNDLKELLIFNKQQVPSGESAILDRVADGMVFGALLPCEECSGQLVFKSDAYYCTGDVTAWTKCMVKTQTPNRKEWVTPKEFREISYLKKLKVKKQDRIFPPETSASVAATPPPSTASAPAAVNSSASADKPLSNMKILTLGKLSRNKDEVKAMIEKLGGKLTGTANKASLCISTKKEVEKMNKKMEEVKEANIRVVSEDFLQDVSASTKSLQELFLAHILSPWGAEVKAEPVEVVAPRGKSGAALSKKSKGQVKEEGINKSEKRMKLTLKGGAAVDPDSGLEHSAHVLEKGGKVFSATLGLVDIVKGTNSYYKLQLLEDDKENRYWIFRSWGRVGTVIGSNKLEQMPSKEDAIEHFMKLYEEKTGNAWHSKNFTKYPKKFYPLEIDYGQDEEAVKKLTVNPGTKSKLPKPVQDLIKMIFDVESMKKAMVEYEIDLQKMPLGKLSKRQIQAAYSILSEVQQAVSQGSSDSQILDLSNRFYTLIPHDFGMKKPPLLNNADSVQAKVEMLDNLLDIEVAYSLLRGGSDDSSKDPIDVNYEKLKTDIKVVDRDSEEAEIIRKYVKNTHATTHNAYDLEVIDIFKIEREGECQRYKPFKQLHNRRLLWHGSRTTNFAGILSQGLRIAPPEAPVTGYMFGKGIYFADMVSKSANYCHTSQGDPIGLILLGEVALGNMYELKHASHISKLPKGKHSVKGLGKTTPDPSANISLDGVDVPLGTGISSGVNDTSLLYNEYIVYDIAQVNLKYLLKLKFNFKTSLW

| SMILES | H2O2-resistant (WI-38 cells [1]; [5]) | No H2O2 stress treatment, at 10 uM (fold change) (WI-38 cells [1]; WI-38 cells) | H2O2-resistant (WI-38 cells [1]; [6]) | EC50 (WI-38 cells [1]; [7]) [µM] | EC50 (WI-38 cells [1]; [8]) [µM] | L = PARP inhibition (human PARP1) | ILS at 60 µM (C. elegans; [9]) [%] | ILS at 60 µM (C. elegans; [10]) [%] | ILS at 60 µM (C. elegans; [11]) [%] | ILS at 66 µM (C. elegans; [12]) [%] | ILS at 66 µM (C. elegans; [13]) [%] | ILS at 66 µM (C. elegans; [14]) [%] | O = Life span- extending scores in worms (C. elegans) | M = Lifespan-extending scores in worms (C. elegans) | M = Huntington's poly-Q toxicity attenuation [2] | K = Huntington's poly-Q toxicity attenuation [2] | fold induction at 10 µM (WI-38 cells [3]; [15]) | fold induction at 10 µM (WI-38 cells [3]; [16]) | B = MMS resistant (WI-38 cells [3]; [17]) | B = MMS resistant (WI-38 cells [3]; summary score) | other results |
| --- | --- | --- | --- | --- | --- | --- | --- | --- | --- | --- | --- | --- | --- | --- | --- | --- | --- | --- | --- | --- | --- |
| CC1C(=O)C(C)C(c2cc(Cl)ccc2O)NC1c1cc(Cl)ccc1O (stereo not shown) [O6] | YES | 1.07 | YES | 9.8 | 9.8 | 0 | 28.3 | 10.3 | 3.9 | 28.3 | 10.3 | 3.9 | 1 (1 for lifespan extension observed in 2 trials) | 1 (1 for lifespan extension observed in 2 trials) | 0 | 0 | 0.81 | 0.79 | 0 | 0 | Assay 1: H2O2-resistant (WI-38 cells [1]; YES/NO, if NO, possibly due to repeated freezing/thawing of stocks): YES; D = Triple resistant (WI-38 cells [3]; summary score): 0; activity at 10 µM [4, 18]: 122%; activity at 10 µM [4, 19]: 87.7%; activity at 10 µM [4, 20]: 130%; activity at 10 µM [4, 21]: 86.3%; activity at 10 µM [4, 22]: 538%; P = Potential DNA-damaging [4]: 0; R = Potential DNA damaging [4]: 0 |
| CCCC(=O)Nc1ccc(-c2cn3cccc(C)c3n2)cc1 [O12] | YES | 1.01 | YES | 1 | 1 | 0 | 36.8 | 9.6 | 6.6 | 36.8 | 9.6 | 6.6 | 2 (2 for observed in more than 2 trials) | 2 (2 for observed in more than 2 trials) | 0 | 0 | 0.78 | 2 | 0 | 0 | Inhibition of PARP1 (human PARP1; 10 μM, in vitro): inhibitors of PARP1; Extension of C. elegans' lifespan (qualitative) (C. elegans): could extend animal's lifespan; D = Triple resistant (WI-38 cells [3]; summary score): 0; activity at 10 µM [4, 18]: 106%; activity at 10 µM [4, 19]: 88%; activity at 10 µM [4, 20]: 113%; activity at 10 µM [4, 21]: 142%; activity at 10 µM [4, 22]: 523%; P = Potential DNA-damaging [4]: 0; R = Potential DNA damaging [4]: 0 |
| [O-][n+]1onc2c3nsnc3c(Br)cc21 [O17] | YES | 1.06 | YES | 8.5 | 8.5 | 0 | 1.7 | 22.6 | 19.7 | 1.7 | 22.6 | 19.7 | 2 (2 for observed in more than 2 trials) | 2 (2 for observed in more than 2 trials) | 0 | 0 | 0.86 | 5.33 | 0 | 0 | relative change of mean lifespan vs control, Trial 6 (confirmative) (C. elegans; 60 μM, on plate, temperature-sensitive sterile animals, without FuDR, 1.0 × 10^11 bacteria/ml): +20.8%; relative change of mean lifespan vs control, Trial 5 (confirmative) (C. elegans; 60 μM, on plate, temperature-sensitive sterile animals, without FuDR, 2.0 × 10^10 bacteria/ml): +15.2%; ILS at 60 µM (C. elegans; 60 μM, on plate, CF512 temperature-sensitive sterile animals, without FuDR, 1.0 × 10^11 bacteria/ml, read-out: relative change of mean lifespan vs control, Trial 4): 17.8%; ILS at 66 µM (C. elegans; Assay 5(ac), 1.0 × 10^11 bacteria/ml, CF512 worms, no FuDR, read-out: Lifespan assay on plates): 17.8%; ILS at 66 µM (C. elegans; Assay 6(ad), 2.0 × 10^10 bacteria/ml, CF512 worms, no FuDR, read-out: Lifespan assay on plates): 15.2%; ILS at 66 µM (C. elegans; Assay 7(ae), 1.0 × 10^11 bacteria/ml, CF512 worms, no FuDR, read-out: Lifespan assay on plates): 20.8%; Extension of C. elegans' lifespan (qualitative) (C. elegans): could extend animal's lifespan; D = Triple resistant (WI-38 cells [3]; summary score): 0; activity at 10 µM [4, 18]: 96.7%; activity at 10 µM [4, 19]: 72.1%; activity at 10 µM [4, 20]: 129%; activity at 10 µM [4, 21]: 148%; activity at 10 µM [4, 22]: 349%; P = Potential DNA-damaging [4]: 0; R = Potential DNA damaging [4]: 0 |
